Results: paper PMC5397059, “Design, synthesis and structure-activity relationship study of wollamide B; a new potential anti TB agent” (PLoS ONE, 2017)
In brackets after ≈: the same amount, converted by molar mass. Non-standard residues stand in square brackets, D forms with d. Residues, ends and D or L forms follow the SMILES beside them. *: point of attachment. dPhe(4-Cl) = N[C@H](Cc1ccc(Cl)cc1)C(=O)O; dOrn = NCCC[C@@H](N)C(=O)O; tBu = CC(C)(C)*

How the values were obtained:
[1] = Chemi-Luminescent Nitrogen Detection (CLND) kinetic solubility assay; type: physicochemical; conditions: phosphate buffered saline, pH 7.4; kinetic aqueous solubility by CLND; read-out: Solubility
Procedure: GSK in-house kinetic solubility assay: 5 μL of 10mM DMSO stock solution diluted to 100 uL with pH7.4 phosphate buffered saline, equilibrated for 1 hour at room temperature, filtered through Millipore Multiscreen HTS-PCF filter plates (MSSL BPC).
The filtrate is quantified by suitably calibrated flow injection CLND. The standard error of the CLND solubility determination is ±30 μM, the upper limit of the solubility is 500 μM when working from 10 mM DMSO stock solution.

Chrom logD assay = type: physicochemical; conditions: reversed phase HPLC column (Gemini NX C18), pH 7.4; read-out: Log D
Procedure: The Chromatographic Hydrophobicity Index (CHI) values were measured using a reversed phase HPLC column (50 x 2 mmx 3 μMGemini NX C18, Phenomenex, UK) with fast acetonitrile gradient at starting mobile phase of 100% pH = 7.4 buffer. CHI values are derived directly from the gradient retention times by using a calibration line obtained for standard compounds. The CHI value approximates to the volume % organic concentration when the compound elutes. CHI is linearly transformed into ChromlogD by the formula: ChromlogD=0.0857CHI−2.00
The average error of the assay is ±3 CHI unit or ±0.25 ChromlogD.

[2] = Artificial membrane permeability assay; type: in vitro ADME; conditions: PAMPA, pH 7.4; passive artificial membrane permeability; read-out: Permeability
Procedure: A 8% L-a-phosphatidylcholine (EPC) in 1% cholesterol decane solution and a 1.8% EPC in cholesterol decane solution were prepared. The lipid solution was then aliquoted into 4 mL capped vials, sealed with parafilm and stored in-20°Cfreezer. The lipid solution was then transferred from 4 mL vial into 96-well half area plate (130μL/well) for daily assay usage. An additional 50 mM phosphate buffer with 0.5% encapsin, pH at 7.4 was prepared. The assay was run by the Biomek FX and Biomek software. The assay procedure is written under the Biomek software. For one batch assay, it can test two 96-well sample plates with at least one standard on each sample plate. The total assay time was about 4 hours. 3.5 μL of lipid solution were added to the filler plate, shaken for 12 seconds, and 250 μL of buffer were added to donor side and 100 μL to the receiver side. The assay plate was shaken for 45 min before adding the compounds. The test compounds (2.5 μL) were added to the donor side. The assay was run as replicates: Assay plates1 and 2 tested the sample plate 1; assay plates 3 and 4 tested the sample plate 2. The assay plates were then incubated and shaken for 3 hours at room temperature.
The assay samples were transferred to the HPLC analysis plates and 100 μL of receiver solution were aspirated and transferred to the receiver for analysis. Similarly, another 100 μL from the donor solution were transferred to the donor analysis plate.
Compound concentration was measured by HPLC at different time-points and permeability was established as nm/sec.

human serum albumin = human serum albumin (Homo sapiens, UniProt P02768); test: Human serum albumin (HSA) binding assay; type: in vitro ADME; conditions: human serum albumin binding
Procedure: HSA binding assay was performed according to the method described by Valko K, et al. The basic principle of the measurements is the determination of gradient retention times of compounds on immobilized HSA column and converting these retention times to the appropriate property values using calibration. The peaks are detected and identified by UV. Calibration sets of compounds are measured before each run for which the HSA binding values are known. The retention times of the calibration set of compounds are plotted against these known values. The slope and the intercept of the obtained straight lines are used to calculate the HSA binding for the unknown compounds.

[3] = Intrinsic clearance (CLint) assay, mouse liver microsomes; type: in vitro ADME; conditions: for % LBF Mouse: liver blood flow; for CLint Mouse: mouse liver microsomes; for half-life at 0.5 µM: mouse, pooled mouse liver microsomes, pH 7.4, read-out: Microsomal t1/2 Mouse; for CLpred Mouse: predicted metabolic clearance
Procedure: (§1) Pooled mouse and human liver microsomes are purchased from Xenotech. Microsomes (final protein concentration 0.5 mg/mL, MgCl2 (final concentration = 5 mM) and test compound (final substrate concentration = 0.5] M; final DMSO concentration = 0.5%) in 0.1 M phosphate buffer pH 7.4 are pre-incubated at 37°C prior to the addition of NADPH (final concentration = 1 mM) to initiate the reaction. The final incubation volume is 600 μL.
(§2) Control incubation is included for each compound tested where 0.1 M phosphate buffer pH 7.4 is added instead of NADPH (minus NADPH). One control compound is included with each species. All incubations are performed singularly for each test compound. Each compound is incubated for 45 minutes and samples (100 μL) of incubate are taken at 0, 5, 15, 30 and 45 min. The control (minus NADPH) is sampled at 30 min only. The reactions are stopped by the addition of sample to 200 μL Acetonitrile: Methanol 3:1 containing internal standard. The terminated samples are centrifuged at 2,500 rpm for 20 min at 4°C to precipitate the protein. Quantitative analysis: following protein precipitation, the samples were analyzed using specific LC-MS/MS conditions. Data analysis: from a plot of ln peak area ratio (compound peak area/internal standard peak area) against time, the gradient of the line was determined. Subsequently, half-life and intrinsic clearance were calculated using the equations below: Eliminationrateconstant(K)=(−gradient) Halflife(t1/2)(min)=0.693/K Cli(mL/min/gprotien)=V×0.693/t1/2 WhereV=Incubationvolume(mL/gmicrosomalprotien)

[4] = Intrinsic clearance (CLint) assay, human liver microsomes; type: in vitro ADME; conditions: for CLint Human: human liver microsomes; for half-life at 0.5 µM: human, pooled human liver microsomes, pH 7.4, human liver microsomes, read-out: Microsomal t1/2 Human; for % LBF Human: liver blood flow; for CLpred Human: predicted metabolic clearance
Procedure: as §1, §2

Mtb H37Rv = conditions: for MIC against Mtb H37Rv: duplicate, analogues; for antimycobacterial activity against Mtb H37Rv: at the maximum dose tested

Sequence of human serum albumin (P02768 25-609): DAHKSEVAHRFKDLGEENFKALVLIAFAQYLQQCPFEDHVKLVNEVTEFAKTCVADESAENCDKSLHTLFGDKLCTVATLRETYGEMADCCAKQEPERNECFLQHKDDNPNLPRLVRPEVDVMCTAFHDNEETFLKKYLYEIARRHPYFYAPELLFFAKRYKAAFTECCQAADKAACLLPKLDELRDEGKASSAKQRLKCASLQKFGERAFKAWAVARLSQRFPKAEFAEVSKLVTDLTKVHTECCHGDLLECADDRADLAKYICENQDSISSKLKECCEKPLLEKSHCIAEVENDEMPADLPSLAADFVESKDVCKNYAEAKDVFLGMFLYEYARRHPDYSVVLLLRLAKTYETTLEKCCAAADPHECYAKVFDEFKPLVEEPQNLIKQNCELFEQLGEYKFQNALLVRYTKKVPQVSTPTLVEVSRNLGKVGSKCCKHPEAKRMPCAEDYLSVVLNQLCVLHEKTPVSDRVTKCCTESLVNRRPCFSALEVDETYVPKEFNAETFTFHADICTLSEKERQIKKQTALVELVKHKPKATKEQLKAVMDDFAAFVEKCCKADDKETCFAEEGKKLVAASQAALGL

| Compound | solubility kinetic at 1 h [1] [µg/mL] | chromatographic logD (Chrom logD assay) | Papp at 3 h [2] [×10⁻⁶ cm/s] | % HSA (human serum albumin) [%] | % LBF Mouse [3] [%] | CLint Mouse [3] [mL/min/g tissue] | half-life at 0.5 µM [3] [h] | CLpred Mouse [3] [mL/min/kg] | CLint Human [4] [mL/min/g tissue] | half-life at 0.5 µM [4] [h] | % LBF Human [4] [%] | CLpred Human [4] [mL/min/kg] | MIC against Mtb H37Rv (Mtb H37Rv) [µM] | antimycobacterial activity against Mtb H37Rv (Mtb H37Rv) |
| --- | --- | --- | --- | --- | --- | --- | --- | --- | --- | --- | --- | --- | --- | --- |
| CC[C@H](C)[C@@H]1NC(=O)[C@H](Cc2c[nH]c3ccccc23)NC(=O)[C@@H](CCCN)NC(=O)[C@H](CC(N)=O)NC(=O)[C@H](C(C)C)NC(=O)[C@@H](CC(C)C)NC1=O [Compound 19c] (cyclo(I[dL]VN[dOrn]W)) | ≥ 183 | 1.73 | < 1 | 67.10 | <16.3 | <0.48 | > 2.31 | <20.50 | <0.40 | > 2.31 | <35.08 | <6.35 | 7.5 (≈ 5.55 µg/mL) |  |
| CC[C@H](C)[C@@H]1NC(=O)[C@H](CC(C)C)NC(=O)[C@H](Cc2c[nH]c3ccccc23)NC(=O)[C@@H](CCCN)NC(=O)[C@H](CC(N)=O)NC(=O)[C@H](C(C)C)NC1=O [Compound 20c] (cyclo(IVN[dOrn]WL)) | ≥ 195 | 1.83 | < 0.3 | 83.67 | <16.3 | <0.48 | > 2.31 | <20.50 | <0.40 | > 2.31 | <35.08 | <6.35 | >80 | completely abolished the activity |
| CC(C)C[C@H]1NC(=O)[C@@H](Cc2ccc(Cl)cc2)NC(=O)[C@H](Cc2c[nH]c3ccccc23)NC(=O)[C@@H](CCCN)NC(=O)[C@H](CC(N)=O)NC(=O)[C@H](C(C)C)NC1=O [Compound 17c] (cyclo(N[dOrn]W[dPhe(4-Cl)][dL]V)) | ≥ 230 | 2.12 | 1.7 | 93.83 | 17.9 | 0.54 | 2.06 | 22.60 | <0.40 | > 2.31 | <35.08 | <6.35 | 30 (≈ 24.3 µg/mL) |  |
| CSCC[C@@H]1NC(=O)[C@@H](CC(C)C)NC(=O)[C@H](CC(C)C)NC(=O)[C@H](Cc2c[nH]c3ccccc23)NC(=O)[C@@H](CCCN)NC(=O)[C@H](CC(N)=O)NC1=O [Compound 8c] (cyclo(L[dL]MN[dOrn]W)) | ≥ 164 | 1.78 | < 1 | 73.79 | <16.30 | <0.48 | > 2.31 |  | 1.79 | 0.511 | 70.90 | 12.76 | >80 | complete loss of activity |
| CC[C@H](C)[C@@H]1NC(=O)[C@@H](Cc2ccc(Cl)cc2)NC(=O)[C@H](CC(C)C)NC(=O)[C@H](Cc2c[nH]c3ccccc23)NC(=O)[C@@H](CCCN)NC(=O)[C@@H](CCCN)NC1=O [Compound 18c] (cyclo(I[dOrn][dOrn]WL[dPhe(4-Cl)])) | 7 (≈ 8.51 µM) |  | 8 | 98.70 | 28.4 | 0.98 | 1.13 | 35.80 | 1.06 | 0.862 | 59.15 | 10.65 | 17.5 (≈ 14.4 µg/mL) |  |
| CC[C@H](C)[C@@H]1NC(=O)[C@H]([C@@H](C)CC)NC(=O)[C@@H](CC(C)C)NC(=O)[C@H](CC(C)C)NC(=O)[C@H](Cc2c[nH]c3ccccc23)NC(=O)[C@@H](CCCN)NC1=O [Compound 12c] (cyclo(II[dOrn]WL[dL])) | ≥ 206 | 2.94 | 1.9 | 96.06 | <16.39 | <0.48 | > 2.31 | <20.50 | 5.93 | 0.155 | 88.98 | 16.02 | 3.1 (≈ 2.33 µg/mL) |  |
| CC[C@H](C)[C@@H]1NC(=O)[C@@H](CC(C)C)NC(=O)[C@H](CC(C)C)NC(=O)[C@H](Cc2c[nH]c3ccccc23)NC(=O)[C@@H](CCCN)NC(=O)[C@H](COC(C)(C)C)NC1=O [Compound 11c] (cyclo(IS(tBu)[dOrn]WL[dL])) | 202 (≈ 258 µM) | 3 | < 0.3 | 92.68 | <16.3 | <0.48 | > 2.31 | <20.50 | 3.33 | 0.276 | 81.90 | 14.70 |  |  |
